Data from article PMC12888920, “MMP-9 regulates disulphide isomerase activity of TGM2 to enhance fusion glycoprotein-mediated syncytium formation of respiratory syncytial virus” (Protein & Cell, 2025).
Blank lines part the entries; values can stand above or below the molecule they belong to.

How the values were obtained:
[1] = Cell viability assay (CellTiter-Glo) in HEp-2 cells; format: cell-based; conditions: human
Method: (§1) Figure 7. MMP-9-mediated TGM2 cleavage potentiates RSV–host interaction. (A) Cytotoxicity profiling. Dose-response curves of TGM2 inhibitors (ZED-1227, Cystamine, Bacitracin, E64FC26, ML359) in HEp-2 cells (72 h treatment). Viability was assessed by CellTiter-Glo assay. Data normalized to untreated controls. mean ± SD, n = 3. (B) Antiviral efficacy. Viral inhibition (FFA) in RSV A2-infected HEp-2 cells treated with TGM2 inhibitors at threefold dilution gradients: ZED-1227 (60–10 µmol/L), Cystamine (200–22.2 µmol/L), Bacitracin (500–50 µmol/L), E64FC26 (0.2–0.05 µmol/L), and ML359 (10–1.1 µmol/L). DMSO as vehicle control. mean ± SD, n = 3. (C) TGM2–F protein interaction. Co-IP analysis in HEK293T cells co-expressing TGM2 and RSV F (48 h). Immunoblots were probed with anti-TGM2, anti-F, or IgG control. Blots represent three independent experiments. (D) Binding kinetics. BLI quantification of TGM2–DS-Cav1 (RSV F prefusion conformation) interaction. The results represent three biological replicates. (E) Ternary complex formation. Co-IP of MMP-9-TGM2-F complex in HEK293T cells (48 h). GAPDH as loading control. Below the asterisk represents the objective band. Blots represent three independent experiments. (F) Impairing MMP-9/TGM2/RSV-F complex inhibits RSV infection. […] (G) Proteolytic enhancement. MMP-9-cleaved TGM2 (TGM2-44) enhances protein disulfide isomerase (PDI) activity was measured using reduced DS-Cav1. mean ± SD, n = 3. (H) Truncation functional analysis. Viral titers (FFA) in HEp-2 cells expressing MMP-9, TGM2, or cleavage fragments (TGM2-44/41) post RSV infection (MOI = 1, 72 hpi). mean ± SD, n = 3. (I) Syncytium rescue. Syncytia area quantification in TGM2 truncation-expressing cells (ImageJ software). mean ± SD, n = 3. (J) Subcellular redistribution. Confocal microscopy of HEp-2 cells co-expressing TGM2 truncations (HA/FLAG-tagged) and RSV F (72 hpi). Scale bar: 10 µm. Images represent three biological replicates. (K) F protein expression. Fluorescence intensity quantification of RSV F in (J) (ImageJ software). mean ± SD, n = 3. (L) Fusion competence assay. Syncytium formation in HEK293T cells co-expressing TGM2 truncations and RSV F/F-C37S/C69S mutants (48 h). Scale bar: 10 µm. Images represent three biological replicates. (M) Mutant validation. RSV F expression levels in (L) were quantified by ImageJ software. mean ± SD, n = 3. The results are representatively shown with three random experiments. The error bars indicate the mean ± SD of three technical replicates (n = 3). […]
(§2) (B-C) Cytotoxicity profiles in HEp-2 (B) and HBEC (C) cells. […] Viability was assessed using the CellTiter-Glo assay (G7570, Promega). […]
(§3) 95 Cell viability was evaluated using a CellTiter -Glo® Luminescent Cell Viability Assay 96 kit (G7571, Promega) according to the manufacturer’s instructions. […]

RSV A2 [2] = assay: Viral inhibition (FFA) in RSV A2-infected HEp-2 cells treated with TGM2 inhibitors; format: cell-based, Respiratory syncytial virus; conditions: HEp-2, RSV A2; ZED-1227 60–10, Cystamine 200–22.2, Bacitracin 500–50, E64FC26 0.2–0.05, ML359 10–1.1 µmol/L
Method: Figure 7. MMP-9-mediated TGM2 cleavage potentiates RSV–host interaction. (A) Cytotoxicity profiling. Dose-response curves of TGM2 inhibitors (ZED-1227, Cystamine, Bacitracin, E64FC26, ML359) in HEp-2 cells (72 h treatment). Viability was assessed by CellTiter-Glo assay. Data normalized to untreated controls. mean ± SD, n = 3. (B) Antiviral efficacy. Viral inhibition (FFA) in RSV A2-infected HEp-2 cells treated with TGM2 inhibitors at threefold dilution gradients: ZED-1227 (60–10 µmol/L), Cystamine (200–22.2 µmol/L), Bacitracin (500–50 µmol/L), E64FC26 (0.2–0.05 µmol/L), and ML359 (10–1.1 µmol/L). DMSO as vehicle control. mean ± SD, n = 3. (C) TGM2–F protein interaction. Co-IP analysis in HEK293T cells co-expressing TGM2 and RSV F (48 h). Immunoblots were probed with anti-TGM2, anti-F, or IgG control. Blots represent three independent experiments. (D) Binding kinetics. BLI quantification of TGM2–DS-Cav1 (RSV F prefusion conformation) interaction. The results represent three biological replicates. (E) Ternary complex formation. Co-IP of MMP-9-TGM2-F complex in HEK293T cells (48 h). GAPDH as loading control. Below the asterisk represents the objective band. Blots represent three independent experiments. (F) Impairing MMP-9/TGM2/RSV-F complex inhibits RSV infection. […] (G) Proteolytic enhancement. MMP-9-cleaved TGM2 (TGM2-44) enhances protein disulfide isomerase (PDI) activity was measured using reduced DS-Cav1. mean ± SD, n = 3. (H) Truncation functional analysis. Viral titers (FFA) in HEp-2 cells expressing MMP-9, TGM2, or cleavage fragments (TGM2-44/41) post RSV infection (MOI = 1, 72 hpi). mean ± SD, n = 3. (I) Syncytium rescue. Syncytia area quantification in TGM2 truncation-expressing cells (ImageJ software). mean ± SD, n = 3. (J) Subcellular redistribution. Confocal microscopy of HEp-2 cells co-expressing TGM2 truncations (HA/FLAG-tagged) and RSV F (72 hpi). Scale bar: 10 µm. Images represent three biological replicates. (K) F protein expression. Fluorescence intensity quantification of RSV F in (J) (ImageJ software). mean ± SD, n = 3. (L) Fusion competence assay. Syncytium formation in HEK293T cells co-expressing TGM2 truncations and RSV F/F-C37S/C69S mutants (48 h). Scale bar: 10 µm. Images represent three biological replicates. (M) Mutant validation. RSV F expression levels in (L) were quantified by ImageJ software. mean ± SD, n = 3. The results are representatively shown with three random experiments. The error bars indicate the mean ± SD of three technical replicates (n = 3). Statistical analysis: one-way ANOVA with Dunnett’s post hoc test (B, F, G, H, I, K, M); unpaired two-tailed Student’s t-test (F, H, I, K, M). *P < 0.05, **P < 0.01, ***P < 0.001; ns, not significant.

RSV A2 [3] = assay: Antiviral activity (FFA) against RSV A2 in HEp-2 cells; format: cell-based; conditions: human respiratory syncytial virus
From the text: (§4) Figure 1. Antiviral activity of metalloproteinase inhibitors against RSV in vitro. (A) Experimental workflow for RSV A2 infection and compound treatment. (B) High-throughput screening of TargetMol L1100 library (246 host protease inhibitors targeting 10 pathways: MMPs, caspases, proteasomes, apoptosis regulators, cysteine proteases, gamma-secretase, autophagy modulators, serine proteases, DPP-4, and beta-secretase) using concentration gradients (1, 5, 10 µmol/L). HEp-2 cells were pretreated with compounds for 1 hour prior to RSV A2 infection (MOI = 0.1). Plaque formation was quantified at 72 hours post-infection (hpi) and normalized to DMSO controls. […] (G) Target overlap analysis of four MMP-9-targeting inhibitors. (H) Viral titers in supernatants of HEp-2 cells transfected with MMP-specific siRNAs (24 h) followed by RSV A2 infection (MOI = 1, 72 h). mean ± SD, n = 3. The results are representatively shown with three random experiments. The error bars indicate the mean ± SD of three technical replicates (n = 3). Statistical significance was determined by one-way ANOVA with Dunnett’s post hoc test: *P < 0.05, ***P < 0.001; ns, not significant. […]
(§5) 110 overtly cytotoxic) underwent dose -response validation (0.00004 –10 μM) to generate
(§6) 111 EC50 curves (GraphPad Prism 8.0) .
(§7) 112 Evaluation of in vitro antiviral activity
(§8) 113 Compound inhibitor treatments: HEp-2 cells (1.3×10⁴/well) or HBEC (1.8×10⁴/well)
(§9) 114 were pretreated with test compounds for 1 h before RSV A2/B18537 infection
(§10) 115 (MOI=0.1 or 0.3). Viral inhibition was quantified at 72 hpi via FFA. Fixed cells (4%
(§11) 116 PFA) were permeabilized (0.3% Triton X-100), stained with anti-RSV-FITC
(§12) 118 Fluorescent foci were normalized to nuclear counts (ImageJ software) for EC 50
(§13) 119 determination via four-parameter logistic regression (GraphPad Prism 8.0). Data
(§14) 120 represent triplicate experiments. […]

RSV B18537 [4] = assay: Antiviral activity (FFA) against RSV B18537 in HEp-2 cells; format: cell-based; conditions: human respiratory syncytial virus
From the text: as §4
(§15) 109 111813, MCE) and 0.1% DMSO vehicle. Primary hits (>50% CPE reduction + not
as §5, §6, §7, §8, §9, §10, §11, §12, §13, §14

RSV A2 [5] = assay: Antiviral activity (FFA) against RSV A2 in primary human bronchial epithelial cells (HBEC); format: cell-based; conditions: human respiratory syncytial virus, Epithelial cell
From the text: as §4, §7, §8, §9, §10, §11, §12, §13, §14

RSV B18537 [6] = assay: Antiviral activity (FFA) against RSV B18537 in HBEC; format: cell-based; conditions: human respiratory syncytial virus
From the text: as §4, §7, §8, §9, §10, §11, §12, §13, §14

RSV A2 [7] = assay: High-throughput antiviral screening of protease inhibitor library against RSV A2 in HEp-2 cells; format: cell-based, Respiratory syncytial virus; conditions: RSV A2, MOI = 0.1, 1, 5, 10 µmol/L, 72 hpi
From the text: Figure 1. Antiviral activity of metalloproteinase inhibitors against RSV in vitro. (A) Experimental workflow for RSV A2 infection and compound treatment. (B) High-throughput screening of TargetMol L1100 library (246 host protease inhibitors targeting 10 pathways: MMPs, caspases, proteasomes, apoptosis regulators, cysteine proteases, gamma-secretase, autophagy modulators, serine proteases, DPP-4, and beta-secretase) using concentration gradients (1, 5, 10 µmol/L). HEp-2 cells were pretreated with compounds for 1 hour prior to RSV A2 infection (MOI = 0.1). Plaque formation was quantified at 72 hours post-infection (hpi) and normalized to DMSO controls. […] (G) Target overlap analysis of four MMP-9-targeting inhibitors. (H) Viral titers in supernatants of HEp-2 cells transfected with MMP-specific siRNAs (24 h) followed by RSV A2 infection (MOI = 1, 72 h). mean ± SD, n = 3. The results are representatively shown with three random experiments. The error bars indicate the mean ± SD of three technical replicates (n = 3). Statistical significance was determined by one-way ANOVA with Dunnett’s post hoc test: *P < 0.05, ***P < 0.001; ns, not significant.
104 High-throughput antiviral screening
105 The L1100 protease inhibitor library (246 compounds; L1100, TargetMol) was
106 screened against RSV A2 in HEp -2 cells. Compounds (10 mM DMSO stocks) were
107 robotically dispensed 1 h pre -infection at final concentrations of 1, 5, 10 μM.
108 Infection rates (72 hpi) were normalized to PC786 (1 μM; positive control; HY -
as §15, §5, §6, §7, §8, §9, §10, §11, §12, §13, §14

HEp-2 cells = assay: Cell viability assay (CellTiter-Glo) in HEp-2 cells; format: cell-based
Method: as §1, §2, §3

Structure (SMILES): NCCSSCCN [Cystamine]
- CC50 at 72 h [1]: 387000 nM
- inhibition of RSV replication (antiviral efficacy) (RSV A2 [2]): did not inhibit RSV replication

- EC50 (RSV A2 [3]; HEp-2, RSV A2, MOI = 0.1, 72 hpi, read-out: EC50): 846 nM
- EC50 (RSV B18537 [4]; HEp-2, RSV B18537, MOI = 0.1, 72 hpi, read-out: EC50): 727 nM
- EC50 (RSV A2 [5]; HBEC, RSV A2, MOI = 0.3, 72 hpi, read-out: EC50): 1300 nM
- EC50 (RSV B18537 [6]; HBEC, RSV B18537, MOI = 0.3, 72 hpi, read-out: EC50): 811 nM
Structure (SMILES): C[C@H]1c2cccc(O)c2C(=O)C2=C(O)[C@]3(O)C(=O)C(C(N)=O)=C(O)[C@@H](N(C)C)[C@@H]3[C@@H](O)[C@@H]21 [Doxycycline]
- inhibition of RSV infection in HEp-2 cells (RSV A2 [7]): significant dose-dependent inhibition

Structure (SMILES): CCCCCCCC/C=C1\C=C(C(F)(F)F)c2cc(O)c(O)cc21 [E64FC26]
- CC50 (HEp-2 cells): 800 nM
- inhibition of RSV replication (antiviral efficacy) (RSV A2 [2]): strong antiviral efficacy

Structure (SMILES): CC(C)=CCc1c(O)c(CC=C(C)C)c2oc3c(O)ccc(O)c3c(=O)c2c1O [Gartanin]
- EC50 (RSV A2 [3]; HEp-2): 726 nM
- EC50 (RSV B18537 [4]; HEp-2): 738 nM
- EC50 (RSV A2 [5]): 625 nM
- EC50 (RSV B18537 [6]): 733 nM
- inhibition of RSV infection in HEp-2 cells (RSV A2 [7]): significant dose-dependent inhibition
